Settings: Liquid; for mass density: Vibrating tube method

CCCCOCCO [2-butoxyethan-1-ol]
mass density [kg/m3]
Settings	100 kPa	101.33 kPa	2500 kPa	5000 kPa	10000 kPa	15000 kPa	20000 kPa	25000 kPa	30000 kPa
293.15 K	900	–	902	903	907	910	913	916	919
298.15 K	–	896.17	–	–	–	–	–	–	–
303.15 K	892	–	893	895	899	902	905	909	912
313.15 K	883	–	885	887	889	894	898	901	904
323.15 K	873	–	875	877	879	886	890	893	896
333.15 K	866	–	868	870	874	878	882	885	889
343.15 K	857	–	860	862	866	870	874	877	881
353.15 K	849	–	851	853	857	862	866	869	873
363.15 K	839	–	842	844	849	853	857	861	865
373.15 K	830	–	833	835	840	845	849	853	857
383.15 K	821	–	823	826	831	836	841	845	849
393.15 K	811	–	814	817	822	827	832	837	841
403.15 K	801	–	804	807	813	819	824	829	833
413.15 K	790	–	794	797	804	810	815	821	825

Settings	speed of sound [m/s]
298.15 K, 101.33 kPa, Sing-around technique in a fixed-path interferometer	1304.7

— the NIST ThermoML archive (doi:10.1016/j.fluid.2017.10.027)
